Laboratory results published in US20240358777A1, “COMPOSITIONS COMPRISING BACILLUS AMYLOLIQUEFACIENS FOR PREVENTING AND TREATING ULCERATIVE COLITIS” (Artugen Therapeutics Ltd., priority 2021, published 2024).
≈ marks a conversion by molar mass, not a printed value.

Assays:
ART24 [1] = assay: Antibiotic susceptibility of ART24, MIC, VetMIC Lact-1 & Lact-2 panels (Table 6); format: cell-based, Bacillus amyloliquefaciens; details: for MIC: Bacillus amyloliquefaciens, read-out: ART24 MIC
Description: The minimum inhibitory concentration (MIC) of the listed antimicrobials is expressed as μg/mL. […] From this suspension 46 μL was transferred in to 23 mL of 90% Iso-Sensitest Broth (CM0473, Oxoid) containing 10% BHI broth to end with a final inoculum concentration of 5×10^5 CFU/mL. The wells of the prefabricated 96-well plates were filled with 100 μL of the final suspension. The plates were sealed with an […], Sigma Aldrich) sealing film (to facilitate growth of the […] strains. The plates were then incubated for 24 hr at 37° C. The results are recorded after 24 hours as the lowest concentration of the antibiotic to inhibit visible growth. The prefabricated panels […], Uppsala, Sweden) comprising the antibiotics ampicillin, vancomycin, gentamicin, kanamycin, streptomycin, erythromycin, clindamycin, tetracycline, chloramphenicol, neomycin, penicillin, quinupristin-dalfopristin, linezolid, trimethoprim, ciprofloxacin and rifampicin were used.

ART24 [2] = assay: Additional EFSA-recommended MIC studies on ART24 lots and cell banks (Table 7); format: cell-based, Bacillus amyloliquefaciens
Description: The minimum inhibitory concentration (MIC) of the listed antimicrobials is expressed as μg/mL. Additional studies following EFSA testing recommendations were performed on lyophilized ART24 lots CO-33-10A2 and CO-33-12A2 and Research and Master Cell Banks CO-33-ART24 BHI and CO-33-ART24 SYD, and those results are shown in Table 7.

[3] = 24 hr at 37° C., average results from N = 6
[4] = Bacillus amyloliquefaciens, source CO-33-10A2 (lyophilized lot), read-out: MIC
[5] = Bacillus amyloliquefaciens, source CO-33-12A2 (lyophilized lot), read-out: MIC
[6] = Bacillus amyloliquefaciens, source CO-33 ART 24 BHI, read-out: MIC
[7] = Bacillus amyloliquefaciens, source CO-33 ART 024 SYD, read-out: MIC
[8] = source CO-33-10A2 (lyophilized lot)
[9] = source CO-33-12A2 (lyophilized lot)

Compound | MIC (ART24 [1]; [3]) [µg/mL] | MIC (ART24 [2]; [4]) [µg/mL] | MIC (ART24 [2]; [5]) [µg/mL] | MIC (ART24 [2]; [6]) [µg/mL] | MIC (ART24 [2]; [7]) [µg/mL] | MIC interpretation (ART24 [2]; source CO-33-10A2) | MIC interpretation (ART24 [2]; source CO-33-12A2) | MIC interpretation (ART24 [2]; source CO-33 ART 24 BHI) | MIC interpretation (ART24 [2]; source CO-33 ART 024 SYD) | also measured
CC(=O)NC[C@H]1CN(c2ccc(N3CCOCC3)c(F)c2)C(=O)O1 [Linezolid] | 0.5 (≈ 1.48 µM) | 0.25 (≈ 0.741 µM) | 0.5 (≈ 1.48 µM) | 0.5 (≈ 1.48 µM) | 0.5 (≈ 1.48 µM) | – | – | – | – | –
CC[C@H]1OC(=O)[C@H](C)[C@@H](O[C@H]2C[C@@](C)(OC)[C@@H](O)[C@H](C)O2)[C@H](C)[C@@H](O[C@@H]2O[C@H](C)C[C@H](N(C)C)[C@H]2O)[C@](C)(O)C[C@@H](C)C(=O)[C@H](C)[C@@H](O)[C@]1(C)O [Erythromycin] | 0.12 (≈ 0.164 µM) | 0.06 (≈ 0.0818 µM) | 0.06 (≈ 0.0818 µM) | 0.12 (≈ 0.164 µM) | 0.12 (≈ 0.164 µM) | (S) | (S) | (S) | (S) | –
CN(C)[C@@H]1C(O)=C(C(N)=O)C(=O)[C@@]2(O)C(O)=C3C(=O)c4c(O)cccc4[C@@](C)(O)[C@H]3C[C@@H]12 [Tetracycline] | 4 (≈ 9 µM) | 2 (≈ 4.5 µM) | 2 (≈ 4.5 µM) | 2 (≈ 4.5 µM) | 2 (≈ 4.5 µM) | (S) | (S) | (S) | (S) | –
[H]/N=C(/N)N[C@H]1[C@H](O)[C@@H](O)[C@H](O[C@@H]2O[C@@H](C)[C@](O)(C=O)[C@H]2O[C@@H]2O[C@@H](CO)[C@H](O)[C@@H](O)[C@@H]2NC)[C@@H](N/C(N)=N\[H])[C@@H]1O [Streptomycin] | 4 (≈ 6.88 µM) | 1 (≈ 1.72 µM) | 1 (≈ 1.72 µM) | 1 (≈ 1.72 µM) | 2 (≈ 3.44 µM) | (S) | (S) | (S) | (S) | –
O=C(O)c1cn(C2CC2)c2cc(N3CCNCC3)c(F)cc2c1=O [Ciprofloxacin] | ≤ 0.25 | ≤ 0.03 | ≤ 0.03 | ≤ 0.03 | ≤ 0.03 | (S) | (S) | (S) | (S) | –
Penicillin | – | – | – | – | – | (S) | (S) | (S) | (S) | ART24 MIC (ART24 [1]; [3]): 0.12 to 0.5 µg/mL; MIC (ART24 [2]; [8]): ≤0.03 µg/mL; MIC (ART24 [2]; [9]): ≤0.03 µg/mL; MIC (ART24 [2]; source CO-33 ART 24 BHI): ≤0.03 µg/mL; MIC (ART24 [2]; source CO-33 ART 024 SYD): 0.06 µg/mL
COc1cc(Cc2cnc(N)nc2N)cc(OC)c1OC [Trimethoprim] | < 0.12 | ≤ 0.25 | < 0.25 | < 0.25 | < 0.25 | – | – | – | – | –
CN[C@H](CC(C)C)C(=O)N[C@H]1C(=O)N[C@@H](CC(N)=O)C(=O)N[C@H]2C(=O)N[C@H]3C(=O)N[C@H](C(=O)N[C@H](C(=O)O)c4cc(O)cc(O)c4-c4cc3ccc4O)[C@H](O)c3ccc(c(Cl)c3)Oc3cc2cc(c3O[C@@H]2O[C@H](CO)[C@@H](O)[C@H](O)[C@H]2O[C@H]2C[C@](C)(N)[C@H](O)[C@H](C)O2)Oc2ccc(cc2Cl)[C@H]1O [Vancomycin] | – | – | – | – | – | (S) | (S) | (S) | (S) | MIC (ART24 [1]; 24 h): 0.5 to 1 µg/mL (≈ 0.345 to 0.69 µM); MIC (ART24 [2]; Bacillus amyloliquefaciens, source CO-33-10A2 (lyophilized lot)): ≤ 0.25 µg/mL; MIC (ART24 [2]; Bacillus amyloliquefaciens, source CO-33-12A2 (lyophilized lot)): ≤ 0.25 µg/mL; MIC (ART24 [2]; Bacillus amyloliquefaciens, source CO-33 ART 24 BHI): 0.5 µg/mL (≈ 0.345 µM); MIC (ART24 [2]; Bacillus amyloliquefaciens, source CO-33 ART 024 SYD): ≤ 0.25 µg/mL
CO[C@H]1/C=C/O[C@@]2(C)Oc3c(C)c(O)c4c(O)c(c(/C=N/N5CCN(C)CC5)c(O)c4c3C2=O)NC(=O)/C(C)=C\C=C\[C@H](C)[C@H](O)[C@@H](C)[C@@H](O)[C@@H](C)[C@H](OC(C)=O)[C@@H]1C [Rifampicin] | 0.5 (≈ 0.608 µM) | 0.25 (≈ 0.304 µM) | 0.25 (≈ 0.304 µM) | 0.25 (≈ 0.304 µM) | 0.25 (≈ 0.304 µM) | (S) | (S) | (S) | (S) | –
CC1(C)S[C@@H]2[C@H](NC(=O)[C@H](N)c3ccccc3)C(=O)N2[C@H]1C(=O)O [Ampicillin] | 0.25 (≈ 0.715 µM) | ≤ 0.03 | ≤ 0.03 | ≤ 0.03 | ≤ 0.03 | (S) | (S) | (S) | (S) | –
O=C(N[C@H](CO)[C@H](O)c1ccc([N+](=O)[O-])cc1)C(Cl)Cl [Chloroamphenicol, Chloramphenicol] | 4 (≈ 12.4 µM) | 2 (≈ 6.19 µM) | 2 (≈ 6.19 µM) | 2 (≈ 6.19 µM) | 2 (≈ 6.19 µM) | (S) | (S) | (S) | (S) | –
Quinupristin-dalfopristin | – | – | – | – | – | – | – | – | – | ART24 MIC (ART24 [1]; [3]): 4 µg/mL; MIC (ART24 [2]; [8]): 1 µg/mL; MIC (ART24 [2]; [9]): 2 µg/mL; MIC (ART24 [2]; source CO-33 ART 24 BHI): 2 µg/mL; MIC (ART24 [2]; source CO-33 ART 024 SYD): 2 µg/mL
CCC[C@@H]1C[C@@H](C(=O)N[C@@H]([C@H]2O[C@H](SC)[C@H](O)[C@@H](O)[C@H]2O)[C@H](C)Cl)N(C)C1 [Clindamycin] | 0.5 to 1 (≈ 1.18 to 2.35 µM) | 0.12 (≈ 0.282 µM) | 0.25 (≈ 0.588 µM) | 0.25 (≈ 0.588 µM) | 0.25 (≈ 0.588 µM) | (S) | (S) | (S) | (S) | –
Cc1ncc([N+](=O)[O-])n1CCO [Metronidazole] | – | – | – | – | – | – | – | – | – | MIC (ART24 [2]; Bacillus amyloliquefaciens, aerobic, source CO-33-10A2, read-out: MIC): > 64 µg/mL; MIC (ART24 [2]; Bacillus amyloliquefaciens, aerobic, source CO-33-12A2, read-out: MIC): > 64 µg/mL; MIC (ART24 [2]; Bacillus amyloliquefaciens, aerobic, source CO-33 ART 24 BHI, read-out: MIC): > 64 µg/mL; MIC (ART24 [2]; Bacillus amyloliquefaciens, aerobic, source CO-33 ART 024 SYD, read-out: MIC): > 64 µg/mL; MIC (ART24 [2]; Bacillus amyloliquefaciens, anaerobic, source CO-33-10A2, read-out: MIC): 64 µg/mL (≈ 374 µM); MIC (ART24 [2]; Bacillus amyloliquefaciens, anaerobic, source CO-33-12A2, read-out: MIC): 64 µg/mL (≈ 374 µM); MIC (ART24 [2]; Bacillus amyloliquefaciens, anaerobic, source CO-33 ART 24 BHI, read-out: MIC): 64 µg/mL (≈ 374 µM); MIC (ART24 [2]; Bacillus amyloliquefaciens, anaerobic, source CO-33 ART 024 SYD, read-out: MIC): 64 µg/mL (≈ 374 µM)
NC[C@H]1O[C@H](O[C@H]2[C@H](O)[C@@H](O[C@H]3O[C@H](CO)[C@@H](O)[C@H](N)[C@H]3O)[C@H](N)C[C@@H]2N)[C@H](O)[C@@H](O)[C@@H]1O [Kanamycin] | ≤ 2 | ≤ 0.5 | ≤ 0.5 | ≤ 0.5 | ≤ 0.5 | (S) | (S) | (S) | (S) | –
Neomycin | – | – | – | – | – | – | – | – | – | ART24 MIC (ART24 [1]; [3]): ≤0.5 µg/mL; MIC (ART24 [2]; [8]): ≤0.12 µg/mL; MIC (ART24 [2]; [9]): ≤0.12 µg/mL; MIC (ART24 [2]; source CO-33 ART 24 BHI): ≤0.12 µg/mL; MIC (ART24 [2]; source CO-33 ART 024 SYD): ≤0.12 µg/mL
Gentamicin | – | – | – | – | – | (S) | (S) | (S) | (S) | ART24 MIC (ART24 [1]; [3]): ≤0.5 µg/mL; MIC (ART24 [2]; [8]): ≤0.06 µg/mL; MIC (ART24 [2]; [9]): ≤0.06 µg/mL; MIC (ART24 [2]; source CO-33 ART 24 BHI): ≤0.06 µg/mL; MIC (ART24 [2]; source CO-33 ART 024 SYD): ≤0.06 µg/mL
CCc1c(Cl)c(O)c(Cl)c(O)c1C(=O)O[C@H]1[C@H](O)[C@H](OC)[C@H](OC/C2=C\C=C\C[C@H](O)/C(C)=C/[C@H](CC)[C@@H](O[C@@H]3OC(C)(C)[C@@H](OC(=O)C(C)C)[C@H](O)[C@@H]3O)/C(C)=C/C(C)=C/C[C@@H]([C@@H](C)O)OC2=O)O[C@@H]1C [Fidaxomicin] | – | 2 (≈ 1.89 µM) | 4 (≈ 3.78 µM) | 4 (≈ 3.78 µM) | 4 (≈ 3.78 µM) | – | – | – | – | –
